Experimental data from ChEMBL document CHEMBL3352660, “Design, synthesis and pharmacological evaluation of novel polycyclic heteroarene ethers as PDE10A inhibitors: part II” (Bioorg Med Chem Lett, 2014).

Experiments:
[1] = Half life in Swiss albino mouse at 10 mg/kg, po; type: ADME, organism-based; set-up: dose 10 mg/kg, route oral; settings: in vivo
Rattus norvegicus [2] = assay: Antipsychotic activity in Sprague-Dawley rat psychosis model assessed as reversal of MK-801-induced stereotypy at 10 mg/kg, po administered 2 hrs prior to MK-801 challenge measured every 5 mins for 1 hr starting 15 mins post MK-801 injection relative to vehicle-treated control; type: functional
[3] = biological target: 3',5'-cyclic-AMP phosphodiesterase 4D (Homo sapiens) (UniProt Q08499); assay: Inhibition of human recombinant PDE4D using [3H]-cAMP as substrate at 10 uM after 30 mins by two-step radiometric assay
[4] = Plasma clearance in iv dosed Sprague-Dawley rat; type: ADME, organism-based
[5] = biological target: T1, cAMP and cAMP-inhibited cGMP 3',5'-cyclic phosphodiesterase 10A (Rattus norvegicus, UniProt Q9QYJ6); assay: Inhibition of rat recombinant GST-tagged PDE10A using [3H]-cAMP as substrate by scintillation proximity assay
T1 sequence (Q9QYJ6 whole entry): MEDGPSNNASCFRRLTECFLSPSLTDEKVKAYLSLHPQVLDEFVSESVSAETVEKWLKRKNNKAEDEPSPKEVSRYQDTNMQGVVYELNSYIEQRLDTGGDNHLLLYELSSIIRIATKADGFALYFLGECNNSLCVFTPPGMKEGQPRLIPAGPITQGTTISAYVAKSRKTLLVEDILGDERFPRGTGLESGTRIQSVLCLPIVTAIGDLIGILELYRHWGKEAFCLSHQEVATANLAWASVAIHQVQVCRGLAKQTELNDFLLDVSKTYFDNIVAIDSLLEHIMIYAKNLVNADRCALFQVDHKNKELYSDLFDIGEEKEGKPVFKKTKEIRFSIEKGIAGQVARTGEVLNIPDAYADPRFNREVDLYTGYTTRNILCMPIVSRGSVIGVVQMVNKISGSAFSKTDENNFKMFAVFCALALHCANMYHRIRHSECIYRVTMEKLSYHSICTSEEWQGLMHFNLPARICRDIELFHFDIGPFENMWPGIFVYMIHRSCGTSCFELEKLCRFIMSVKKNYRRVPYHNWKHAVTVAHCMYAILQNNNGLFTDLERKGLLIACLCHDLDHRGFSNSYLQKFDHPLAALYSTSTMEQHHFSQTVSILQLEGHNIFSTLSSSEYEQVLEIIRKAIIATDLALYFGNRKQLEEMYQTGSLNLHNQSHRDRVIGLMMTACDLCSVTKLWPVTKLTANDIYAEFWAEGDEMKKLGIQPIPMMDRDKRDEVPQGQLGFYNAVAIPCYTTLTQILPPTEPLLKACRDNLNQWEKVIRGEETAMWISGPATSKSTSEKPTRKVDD

Brain = assay: Free drug level in Sprague-Dawley rat brain at 10 mg/kg, po after 1 hr by LC/MS/MS analysis; type: ADME, organism-based; set-up: dose 10 mg/kg, route oral; settings: in vivo
[6] = biological target: Dual 3',5'-cyclic-AMP and -GMP phosphodiesterase 11A (Homo sapiens) (UniProt Q9HCR9); assay: Inhibition of human recombinant PDE11A using [3H]-cAMP as substrate at 1 uM after 30 mins by two-step radiometric assay
[7] = Plasma clearance in iv dosed Swiss albino mouse; type: ADME, organism-based
[8] = Metabolic stability in Beagle dog liver microsomes incubated for 10 mins prior to NADPH addition measured after 60 mins by LC/MS/MS analysis; type: ADME, Canis lupus familiaris; settings: read-out: Stability
[9] = Metabolic stability in human liver microsomes incubated for 10 mins prior to NADPH addition measured after 60 mins by LC/MS/MS analysis; type: ADME; settings: read-out: Stability
[10] = AUC (0 to t) in Sprague-Dawley rat at 10 mg/kg, po; type: ADME, organism-based; set-up: dose 10 mg/kg, route oral; settings: plasma
[11] = biological target: cGMP-specific 3',5'-cyclic phosphodiesterase (Homo sapiens) (UniProt O76074); assay: Inhibition of human recombinant PDE5A using […] as substrate at 1 uM after 30 mins by scintillation proximity assay
[12] = Cmax in Sprague-Dawley rat at 10 mg/kg, po; type: ADME, organism-based; set-up: dose 10 mg/kg, route oral; settings: in vivo
Mus musculus = assay: Ratio of ED50 for po dosed Swiss albino mouse assessed as inhibition of apomorphine-induced sniffing behavior administered 30 mins prior to apomorphine challenge to ED50 for po dosed Swiss albino mouse assessed as inhibition of apomorphine-induced climbing behavior administered 30 mins prior to apomorphine challenge; type: functional
Rattus norvegicus [13] = assay: Antipsychotic activity in Sprague-Dawley rat psychosis model assessed as reversal of MK-801-induced ataxia at 1 mg/kg, po administered 2 hrs prior to MK-801 challenge measured every 5 mins for 1 hr starting 15 mins post MK-801 injection relative to vehicle-treated control; type: functional
[14] = biological target: T2, cAMP and cAMP-inhibited cGMP 3',5'-cyclic phosphodiesterase 10A (Mus musculus, UniProt Q8CA95); assay: Inhibition of mouse recombinant GST-tagged PDE10A using [3H]-cAMP as substrate after 30 mins by scintillation proximity assay
T2 sequence (Q8CA95 whole entry): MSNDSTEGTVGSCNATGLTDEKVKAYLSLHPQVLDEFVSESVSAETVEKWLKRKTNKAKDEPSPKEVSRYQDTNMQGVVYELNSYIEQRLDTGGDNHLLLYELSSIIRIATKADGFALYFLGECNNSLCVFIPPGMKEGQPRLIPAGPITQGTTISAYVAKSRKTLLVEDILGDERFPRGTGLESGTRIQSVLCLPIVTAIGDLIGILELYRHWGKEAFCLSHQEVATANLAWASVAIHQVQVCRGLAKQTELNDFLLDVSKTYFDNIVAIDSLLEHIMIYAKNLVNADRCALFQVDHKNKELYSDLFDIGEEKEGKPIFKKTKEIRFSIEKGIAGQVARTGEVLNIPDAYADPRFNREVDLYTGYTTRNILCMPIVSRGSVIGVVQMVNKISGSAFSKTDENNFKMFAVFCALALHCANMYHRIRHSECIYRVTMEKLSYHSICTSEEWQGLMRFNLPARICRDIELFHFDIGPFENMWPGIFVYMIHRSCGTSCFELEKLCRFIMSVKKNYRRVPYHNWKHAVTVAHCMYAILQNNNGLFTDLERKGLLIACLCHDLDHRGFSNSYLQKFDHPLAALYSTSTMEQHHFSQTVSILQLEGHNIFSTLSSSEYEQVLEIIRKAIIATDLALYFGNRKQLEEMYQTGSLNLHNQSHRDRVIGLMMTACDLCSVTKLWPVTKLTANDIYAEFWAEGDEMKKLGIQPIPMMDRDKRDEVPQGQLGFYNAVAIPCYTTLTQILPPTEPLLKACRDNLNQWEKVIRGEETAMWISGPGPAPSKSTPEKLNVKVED

Rattus norvegicus [15] = assay: Antipsychotic activity in Sprague-Dawley rat psychosis model assessed as reversal of MK-801-induced locomotion at 1 mg/kg, po administered 2 hrs prior to MK-801 challenge measured every 5 mins for 1 hr starting 15 mins post MK-801 injection relative to vehicle-treated control; type: functional
Rattus norvegicus [16] = assay: Antipsychotic activity in Sprague-Dawley rat psychosis model assessed as reversal of MK-801-induced stereotypy at 3 mg/kg, po administered 2 hrs prior to MK-801 challenge measured every 5 mins for 1 hr starting 15 mins post MK-801 injection relative to vehicle-treated control; type: functional

Chain of 3',5'-cyclic-AMP phosphodiesterase 4D (Homo sapiens) (Q08499 whole entry): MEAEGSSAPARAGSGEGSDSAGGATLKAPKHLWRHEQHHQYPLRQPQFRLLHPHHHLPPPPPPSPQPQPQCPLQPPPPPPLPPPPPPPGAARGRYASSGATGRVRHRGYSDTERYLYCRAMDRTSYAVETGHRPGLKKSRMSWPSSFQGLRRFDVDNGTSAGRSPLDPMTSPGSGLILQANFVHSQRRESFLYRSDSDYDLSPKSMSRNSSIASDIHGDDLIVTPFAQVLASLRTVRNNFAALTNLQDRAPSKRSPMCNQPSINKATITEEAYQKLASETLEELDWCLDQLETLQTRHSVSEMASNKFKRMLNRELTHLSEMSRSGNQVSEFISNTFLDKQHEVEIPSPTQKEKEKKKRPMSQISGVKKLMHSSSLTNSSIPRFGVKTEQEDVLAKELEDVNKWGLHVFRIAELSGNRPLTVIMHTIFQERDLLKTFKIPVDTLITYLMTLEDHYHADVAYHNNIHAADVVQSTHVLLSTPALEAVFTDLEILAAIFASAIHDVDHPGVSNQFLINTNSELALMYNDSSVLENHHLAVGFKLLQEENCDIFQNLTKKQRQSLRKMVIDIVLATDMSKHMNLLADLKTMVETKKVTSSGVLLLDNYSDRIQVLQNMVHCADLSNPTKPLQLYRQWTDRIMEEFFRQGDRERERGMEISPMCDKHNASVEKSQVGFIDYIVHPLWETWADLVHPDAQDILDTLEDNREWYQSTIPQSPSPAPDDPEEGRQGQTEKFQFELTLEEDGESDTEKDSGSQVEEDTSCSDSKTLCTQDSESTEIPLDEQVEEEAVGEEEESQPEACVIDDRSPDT
Chain of Dual 3',5'-cyclic-AMP and -GMP phosphodiesterase 11A (Homo sapiens) (Q9HCR9 whole entry, looked up): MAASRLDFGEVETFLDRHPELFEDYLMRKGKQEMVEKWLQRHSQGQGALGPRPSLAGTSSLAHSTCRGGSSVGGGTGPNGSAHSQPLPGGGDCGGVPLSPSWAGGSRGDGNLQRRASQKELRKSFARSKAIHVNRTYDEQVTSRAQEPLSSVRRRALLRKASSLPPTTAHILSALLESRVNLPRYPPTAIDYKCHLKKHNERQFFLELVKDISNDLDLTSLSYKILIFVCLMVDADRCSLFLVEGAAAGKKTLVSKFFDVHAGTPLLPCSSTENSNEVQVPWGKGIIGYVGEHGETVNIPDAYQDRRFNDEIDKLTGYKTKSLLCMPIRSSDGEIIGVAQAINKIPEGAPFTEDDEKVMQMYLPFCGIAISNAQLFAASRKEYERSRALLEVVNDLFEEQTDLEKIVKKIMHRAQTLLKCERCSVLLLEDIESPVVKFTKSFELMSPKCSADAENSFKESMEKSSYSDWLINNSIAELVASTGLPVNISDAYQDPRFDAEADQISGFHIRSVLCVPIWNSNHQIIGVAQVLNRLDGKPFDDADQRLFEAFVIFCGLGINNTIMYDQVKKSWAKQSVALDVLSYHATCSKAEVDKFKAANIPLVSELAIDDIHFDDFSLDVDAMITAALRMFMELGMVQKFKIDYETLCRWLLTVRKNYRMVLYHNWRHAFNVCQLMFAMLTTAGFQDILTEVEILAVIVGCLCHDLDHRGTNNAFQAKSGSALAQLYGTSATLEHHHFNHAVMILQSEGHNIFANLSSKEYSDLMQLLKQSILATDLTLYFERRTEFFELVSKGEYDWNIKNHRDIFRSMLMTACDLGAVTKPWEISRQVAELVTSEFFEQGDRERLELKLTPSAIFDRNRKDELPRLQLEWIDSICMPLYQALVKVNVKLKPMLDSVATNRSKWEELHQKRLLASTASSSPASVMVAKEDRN

half-life [1]: 10.4 h
inhibition [3]: 33.8%
clearance [4]: 1.6 mL/min/kg
IC50 [5]: 16.1 nM
Drug uptake(free) (Brain): 5 nM
inhibition [6]: 4.9%
clearance [7]: 68.4 mL/min/kg
remaining at 1 h [8]: 65.8%
remaining at 1 h [9]: 77.4%
AUC(0-t) [10]: 410 µg·h/mL
inhibition [11]: 0.8%
Cmax [12]: 27600 ng/mL
IC50 [14]: 11.7 nM
Compound: Cn1cc(-c2ccc(Oc3nccnc3-c3ccncc3)cc2)c2ncccc21
Activity (Rattus norvegicus [2]): 99%
Ratio ED50 (Mus musculus): 10.63
Activity (Rattus norvegicus [13]): 59%
Activity (Rattus norvegicus [15]): 27%
Activity (Rattus norvegicus [16]): 96%
